Source: patent publication US7699995B2, “Water treatment method” (priority 2006, dated 2010)
Marks after values point to notes of the source that are not given here.

Legend:
[1] = test system: natural, resident populations of Mycobacterium; experiment: Eradication of mycobacteria in naturally contaminated in-use metalworking fluids; format: cell-based; details: for No. of Fluids with ≧99% Kill (2-log reduction): of six fluids, 48 hours
Protocol: A comparative study was conducted evaluating six metalworking fluid biocides versus natural, resident populations of Mycobacterium from six in-use metalworking fluids. CMIT/MIT, CMIT/MIT/MCC, MIT, BIT, triazine, and PCMC microbicides were tested under controlled laboratory conditions to determine their efficacy at the maximum manufacturer's recommended dose rate (Table 2). The metalworking fluids were known to contain high levels of mycobacteria prior to dosing with biocides. Samples were then dosed with biocides, incubated with agitation at room temperature and viable mycobacteria counts determined after 48 hours by plating onto Middlebrook 7H10 medium, with Tween 80, glycerin, cyclohexamide, chloramphenicol, and gentamycin to suppress the growth of unwanted microorganisms.
The six metalworking fluid samples containing mycobacteria study from Example 7, were also tested using the same biocides with dosing at 50% of the maximum manufacturer's recommended rate (Table 2) under the same conditions. These metalworking fluids were known to contain high levels of mycobacteria prior to dosing with biocides. Samples were then dosed with biocides, incubated with agitation at room temperature and viable mycobacteria counts determined after 48 hours by plating onto Middlebrook 7H10 medium, with Tween 80, glycerin, cyclohexamide, chloramphenicol, and gentamycin to suppress the growth of unwanted microorganisms.

[2] = test system: Mycobacterium immunogenum (ATCC 700505); experiment: High resolution MIC test, pure culture, 1/10x TSB; format: cell-based; details: M. immunogenum, 24 hours at 30° C.
Protocol: (§1) The lowest concentration of microbicide required to inhibit bacteria was determined by a high resolution MIC test. Varying amounts of each microbicide were added to media in a 96-well microtiter plate. The media used for the MIC tests was 10% Trypicase Soy Broth ( 1/10× TSB). […] serial dilutions were performed on a Biomek 2000 Workstation to obtain a range of closely spaced concentrations of microbicides. A cell suspension of stationary phase microorganisms, adjusted to provide 10^6 colony forming units (CFU)/mL in each well for bacteria was added to the microtiter plate. The microtiter plates were incubated for 24 hours at 30° C. for Mycobacterium immunogenum and 37° C. for Mycobacterium chelonae. The presence or absence of microbial growth was determined by measuring the turbidity in each well using a Thermomax microplate reader set at an absorbance of 650 nm. The lowest concentration of compound in which no growth was observed was considered the MIC value for the microbicide. The MIC value for each microbicide was determined from the average of four determinations for bacteria.
(§2) Bacterial strains tested included Mycobacterium chelonae (ATCC 14472) and Mycobacterium immunogenum (ATCC 700505). Mycobacterial cultures were grown overnight at 30° C. (M. immunogenum) or 37° C. (M. chelonae), in a rotary shaking bath in Middlebrook […] with Middlebrook enrichment. A 1:20 dilution of the overnight culture was made into the appropriate test media and inoculated to give a final concentration of 10^6 to 10^7 CFU/ml.

[3] = test system: Mycobacterium chelonae (ATCC 14472); experiment: High resolution MIC test, pure culture, 1/10x TSB; format: cell-based; details: M. chelonae, 24 hours at 37° C.
Protocol: as §1, §2

[4] = test system: Mycobacterium immunogenum (ATCC 700505); experiment: MBC test, transfer from MIC plates to fresh media; format: cell-based; details: M. immunogenum, no survivors after 2 days in fresh media
Protocol: as §2
(§3) MBC tests were conducted by transferring samples from the MIC test samples into fresh media and observing for growth of the culture. Growth was determined as above. In this test using Biomek 2000 Workstation, 10 μl samples taken from the 96-well MIC plates were placed in […] of fresh growth media to determine the number of surviving organisms for the same gradient of biocide concentrations. These plates were incubated and read in the same fashion as the MIC plates.

[5] = test system: Mycobacterium chelonae (ATCC 14472); experiment: MBC test, transfer from MIC plates to fresh media; format: cell-based; details: M. chelonae, no survivors after 2 days in fresh media
Protocol: as §2, §3

[6] = buffer, pH 9
Protocol: pH 9 buffer containing 0.069 M boric acid, 0.017 M citric acid, 0.066 M sodium phosphate was prepared in distilled water. Biocide was dosed into the pH 9 buffer solution and stored at 70° C. in a heat block. The samples were examined for active ingredient concentration at the time points after 5 hours, and 1, 3, 7, 23, 30, 35 and 56 days. Initial biocide doses were 166 ppm MI, 199 ppm BIT and 150 ppm BNPD.
The samples were evaluated for active ingredient concentration via High Pressure Liquid Chromatography. Samples were taken from the heating blocks and allowed to cool to room temperature for 30 minutes. The samples were then diluted 1:20 in deionized water by adding 9.5 ml of deionized water to 0.5 grams of the samples in a 25 ml glass sample vial. The samples were mixed for 15 seconds and transferred to HPLC sample vials for analysis.

[7] = Stability in buffered water at various pH and temperatures (HPLC); format: physicochemical
Protocol: Biocides were added to buffer solutions and stability was tested at 22° and 50° C. using HPLC to measure biocide concentration at 0 time, 21 days, 43 days, and 88-90 days. Biocide stability was determined in the following buffer solutions: pH2, 0.01M HCl; pH6, 0.1M KH2PO4; pH8, 0.025M borate; pH10, 0.025M borate; pH12, 0.05M Na2HPO4. Biocide concentrations tested were 100 ppm MI, 200 ppm BIT, 44 ppm CMI.

[8] = Stability in high pH metalworking fluid use dilutions (HPLC); format: physicochemical; details: for % CMIT Remaining (without MCC) / % CMIT Remaining (with MCC): 25° C.; for % CMIT Remaining (with MCC): MCC 300 ppm
Protocol: Stability studies were conducted in three high pH metalworking fluid use dilutions to compare the persistence of MIT biocide versus CMIT biocide, tested alone and in combination with MCC). Aliquots of the use-diluted fluids were dosed with 17.5 ppm active CMIT/MIT and CMIT/MIT/MCC and stored at 25° C. Biocide concentrations were determined at time zero and weekly using high performance liquid chromatography (HPLC) analysis.

[9] = Fluid 1, 48 hours, 50% of recommended maximum dose
[10] = Fluid 1, 48 hours, 100% of recommended maximum dose
[11] = Fluid 2, 48 hours, 50% of recommended maximum dose
[12] = Fluid 2, 48 hours, 100% of recommended maximum dose
[13] = Fluid 3, 48 hours, 50% of recommended maximum dose
[14] = Fluid 3, 48 hours, 100% of recommended maximum dose
[15] = Fluid 4, 48 hours, 50% of recommended maximum dose
[16] = Fluid 4, 48 hours, 100% of recommended maximum dose
[17] = Fluid 5, 48 hours, 50% of recommended maximum dose
[18] = Fluid 5, 48 hours, 100% of recommended maximum dose
[19] = Fluid 6, 48 hours, 50% of recommended maximum dose
[20] = Fluid 6, 48 hours, 100% of recommended maximum dose
[21] = Synthetic Fluid 2 (pH 9.4), 1 wk
[22] = Synthetic Fluid 2 (pH 9.4), 3 wk

Structure (SMILES): OCCN1CN(CCO)CN(CCO)C1 [Triazine]
- Log Reduction in Mycobacterial Counts versus Control (no biocide) [1, 9]: 0.00 log
- Log Reduction in Mycobacterial Counts versus Control (no biocide) [1, 10]: 0.00 log
- Log Reduction in Mycobacterial Counts versus Control (no biocide) [1, 11]: 0.00 log
- Log Reduction in Mycobacterial Counts versus Control (no biocide) [1, 12]: 0.12 log
- Log Reduction in Mycobacterial Counts versus Control (no biocide) [1, 13]: 0.00 log
- Log Reduction in Mycobacterial Counts versus Control (no biocide) [1, 14]: 0.00 log
- Log Reduction in Mycobacterial Counts versus Control (no biocide) [1, 15]: 0.00 log
- Log Reduction in Mycobacterial Counts versus Control (no biocide) [1, 16]: 0.00 log
- Log Reduction in Mycobacterial Counts versus Control (no biocide) [1, 17]: 0.06 log
- Log Reduction in Mycobacterial Counts versus Control (no biocide) [1, 18]: 0.00 log
- Log Reduction in Mycobacterial Counts versus Control (no biocide) [1, 19]: 0.00 log
- Log Reduction in Mycobacterial Counts versus Control (no biocide) [1, 20]: 0.00 log
- No. of Fluids with ≧99% Kill (2-log reduction) ([1]; 50% of recommended maximum dose): 0
- No. of Fluids with ≧99% Kill (2-log reduction) ([1]; 100% of recommended maximum dose): 0
- Minimum Inhibitory Concentration [2]: 39 ppm active
- Minimum Inhibitory Concentration [3]: 43 ppm active
- Minimum Biocidal Concentration [4]: 314 ppm active
- Minimum Biocidal Concentration [5]: 314 ppm active

Structure (SMILES): O=[N+]([O-])C(Br)(CO)CO [BNPD, 2-bromo-2-nitro-propane-1,3-diol]
- Percent Remaining after: 0 ([6]; 0 h): 100%
- Percent Remaining after: 5 hr ([6]; 5 h): 0%
- Percent Remaining after: 1 day ([6]; 24 h): 0%

Structure (SMILES): C1COCN1 [Oxazolidine]
- Minimum Inhibitory Concentration [2]: 38 ppm active
- Minimum Inhibitory Concentration [3]: 42 ppm active
- Minimum Biocidal Concentration [4]: 836 ppm active
- Minimum Biocidal Concentration [5]: 34 ppm active

Structure (SMILES): Cn1sc(Cl)cc1=O [CMI, 5-chloro-2-methyl-4-isothiazolin-3-one]
- Percent Remaining at: pH 2 ([7]; 22° C., day 0): 100%
- Percent Remaining at: pH 6 ([7]; 22° C., day 0): 100%
- Percent Remaining at: pH 8 ([7]; 22° C., day 0): 100%
- Percent Remaining at: pH 10 ([7]; 22° C., day 0): 100%
- Percent Remaining at: pH 12 ([7]; 22° C., day 0): 100%
- Percent Remaining at: pH 2 ([7]; 22° C., day 21): 100%
- Percent Remaining at: pH 6 ([7]; 22° C., day 21): 100%
- Percent Remaining at: pH 8 ([7]; 22° C., day 21): 100%
- Percent Remaining at: pH 10 ([7]; 22° C., day 21): 0%
- Percent Remaining at: pH 12 ([7]; 22° C., day 21): 0%
- Percent Remaining at: pH 2 ([7]; 22° C., day 43): 100%
- Percent Remaining at: pH 6 ([7]; 22° C., day 43): 100%
- Percent Remaining at: pH 8 ([7]; 22° C., day 43): 91%
- Percent Remaining at: pH 10 ([7]; 22° C., day 43): 0%
- Percent Remaining at: pH 12 ([7]; 22° C., day 43): 0%
- Percent Remaining at: pH 2 ([7]; 22° C., day 88): 100%
- Percent Remaining at: pH 6 ([7]; 22° C., day 88): 100%
- Percent Remaining at: pH 8 ([7]; 22° C., day 88): 95%
- Percent Remaining at: pH 10 ([7]; 22° C., day 88): 0%
- Percent Remaining at: pH 12 ([7]; 22° C., day 88): 0%
- Percent Remaining at: pH 2 ([7]; 50° C., day 0): 100%
- Percent Remaining at: pH 6 ([7]; 50° C., day 0): 100%
- Percent Remaining at: pH 8 ([7]; 50° C., day 0): 100%
- Percent Remaining at: pH 10 ([7]; 50° C., day 0): 100%
- Percent Remaining at: pH 12 ([7]; 50° C., day 0): 100%
- Percent Remaining at: pH 2 ([7]; 50° C., day 21): 100%
- Percent Remaining at: pH 6 ([7]; 50° C., day 21): 100%
- Percent Remaining at: pH 8 ([7]; 50° C., day 21): 15%
- Percent Remaining at: pH 10 ([7]; 50° C., day 21): 0%
- Percent Remaining at: pH 12 ([7]; 50° C., day 21): 0%
- Percent Remaining at: pH 2 ([7]; 50° C., day 43): 93%
- Percent Remaining at: pH 6 ([7]; 50° C., day 43): 65%
- Percent Remaining at: pH 8 ([7]; 50° C., day 43): 0%
- Percent Remaining at: pH 10 ([7]; 50° C., day 43): 0%
- Percent Remaining at: pH 12 ([7]; 50° C., day 43): 0%
- Percent Remaining at: pH 2 ([7]; 50° C., day 88): 100%
- Percent Remaining at: pH 6 ([7]; 50° C., day 88): 30%
- Percent Remaining at: pH 8 ([7]; 50° C., day 88): 0%
- Percent Remaining at: pH 10 ([7]; 50° C., day 88): 0%
- Percent Remaining at: pH 12 ([7]; 50° C., day 88): 0%
- % CMIT Remaining (without MCC) ([8]; Soluble Fluid 1 (pH 9.2), 2 wk): 28%
- % CMIT Remaining (with MCC) ([8]; Soluble Fluid 1 (pH 9.2), 2 wk): 38%
- % CMIT Remaining (without MCC) ([8]; Soluble Fluid 1 (pH 9.2), 4 wk): 10%
- % CMIT Remaining (with MCC) ([8]; Soluble Fluid 1 (pH 9.2), 4 wk): 18%
- % CMIT Remaining (without MCC) ([8]; Soluble Fluid 3 (pH 9.3), 2 wk): 25%
- % CMIT Remaining (with MCC) ([8]; Soluble Fluid 3 (pH 9.3), 2 wk): 35%
- % CMIT Remaining (without MCC) ([8]; Soluble Fluid 3 (pH 9.3), 4 wk): 0%
- % CMIT Remaining (with MCC) ([8]; Soluble Fluid 3 (pH 9.3), 4 wk): 16%
- % CMIT Remaining (without MCC) [8, 21]: 13%
- % CMIT Remaining (with MCC) [8, 21]: 42%
- % CMIT Remaining (without MCC) [8, 22]: 0* %
- % CMIT Remaining (with MCC) [8, 22]: 0%
- biocide remaining, CMIT with MCC ([8]; after 3-4 weeks in the three fluids, 300 ppm MCC): ≤ 16%
- biocide remaining, CMIT alone ([8]; after 3-4 weeks in the three fluids, without MCC): none remaining

Structure (SMILES): Cc1cc(O)ccc1Cl [PCMC]
- Log Reduction in Mycobacterial Counts versus Control (no biocide) [1, 9]: 0.00 log
- Log Reduction in Mycobacterial Counts versus Control (no biocide) [1, 10]: 5.88 log
- Log Reduction in Mycobacterial Counts versus Control (no biocide) [1, 11]: 1.00 log
- Log Reduction in Mycobacterial Counts versus Control (no biocide) [1, 12]: 5.00 log
- Log Reduction in Mycobacterial Counts versus Control (no biocide) [1, 13]: 0.00 log
- Log Reduction in Mycobacterial Counts versus Control (no biocide) [1, 14]: 1.00 log
- Log Reduction in Mycobacterial Counts versus Control (no biocide) [1, 15]: 5.24 log
- Log Reduction in Mycobacterial Counts versus Control (no biocide) [1, 16]: 5.24 log
- Log Reduction in Mycobacterial Counts versus Control (no biocide) [1, 17]: 0.51 log
- Log Reduction in Mycobacterial Counts versus Control (no biocide) [1, 18]: 0.90 log
- Log Reduction in Mycobacterial Counts versus Control (no biocide) [1, 19]: 3.88 log
- Log Reduction in Mycobacterial Counts versus Control (no biocide) [1, 20]: 3.88 log
- Minimum Inhibitory Concentration [2]: 35 ppm active
- Minimum Inhibitory Concentration [3]: 20 ppm active
- Minimum Biocidal Concentration [4]: 75 ppm active
- Minimum Biocidal Concentration [5]: 60 ppm active
